Values of other authors as cited in patent publication US7045323B2 (priority 1999, dated 2006).

Key:
[1] = system: HIV reverse transcription process
[2] = system: proviral DNA load; conditions: murine model of immunodeficiency; first stage of infection

| Structure (SMILES) | inhibition of the HIV reverse transcription process [1] | proviral DNA load [2] |
| --- | --- | --- |
| N[C@@H](CCC(=O)N[C@@H](CS)C(=O)NCC(=O)O)C(=O)O [GSH, glutathione] | can inhibit | able to decrease the proviral DNA load |
| CC(=O)N[C@@H](CS)C(=O)O [N-acetylcysteine] | can inhibit |  |
